Data taken from the NIST ThermoML archive (doi:10.1016/j.fluid.2008.01.010).
Numbers after ± are expanded uncertainties.

Key:
[1] = 298.15 K; 101.33 kPa; Liquid
[2] = refractive index (Na D-line) (dimensionless); settings: 298.15 K; 101.33 kPa; Liquid; Standard Abbe refractometry

Compound	mass density [1]	refractive index [2]
CC(C)CO [2-methyl-1-propanol]	797.83 ± 0.48 kg/m3	1.3938 ± 0.0005
OCC(O)CO [glycerol]	1258.5 ± 0.6 kg/m3	1.4726 ± 0.0005
CC(=O)OCC(C)C [2-methylpropyl ethanoate]	866.12 ± 0.67 kg/m3	1.3876 ± 0.0006
